Assay results from the NIST ThermoML archive (doi:10.1016/j.fluid.2007.07.059).

What was measured:
[1] = xn = mol fraction of the nth substance listed; conditions: Gas, Hot wire method
[2] = Gas, Hot wire method

CCC(C)C [2-methylbutane] + CCCCC
thermal conductivity [W/m/K], [1]
Conditions	100 kPa	200 kPa	500 kPa
345.26 K, x1 = 0.6232	0.01956	0.01963	0.01984
345.54 K, x1 = 0.1695	0.01924	0.01936	0.01973
346.28 K, x1 = 0.3293	0.01932	0.01941	0.0197
361.52 K, x1 = 0.3293	0.02107	0.02119	0.02156
362.08 K, x1 = 0.1695	0.02122	0.02131	0.02155
362.43 K, x1 = 0.6232	0.02163	0.02169	0.02187
378.03 K, x1 = 0.6232	0.02381	0.02382	0.02387
378.23 K, x1 = 0.1695	0.02312	0.02327	0.02372
378.57 K, x1 = 0.3293	0.02344	0.02346	0.02351
394.05 K, x1 = 0.6232	0.02586	0.02591	0.02605
394.45 K, x1 = 0.1695	0.02554	0.02558	0.02571
395.51 K, x1 = 0.3293	0.02569	0.02572	0.02578

CCC(C)C [2-methylbutane]
thermal conductivity [W/m/K], [2]
Conditions	342.97 K	352.61 K	375 K	390.75 K
100 kPa	0.01954	0.02064	0.02347	0.02574
200 kPa	0.0196	0.02071	0.02356	0.0258
500 kPa	0.01976	0.02093	0.02385	0.026

CCCCC [pentane]
thermal conductivity [W/m/K], [2]
Conditions	342.97 K	366.02 K	380.86 K	407.37 K
100 kPa	0.01889	0.02169	0.02371	0.02719
200 kPa	0.01895	0.02176	0.02378	0.02728
500 kPa	0.01915	0.02198	0.02398	0.02754
